Here are results for 32 compounds from patent US20240083839A1, “COMPOSITIONS AND METHODS FOR TREATING NEURODEGENERATIVE DISEASES AND DISORDERS” (The Regents of the University of California, priority 2020, published 2024).

“And” between values parts separate entries of the source, which are not always exact repeats. Identical values can stand only once. Counter-ions that a name gives are not always drawn. Like-named read-outs stand apart in the source and are kept apart here.

Data set [1] concerns SirT1 levels in N2a-E4 cells. The data set can be described thus: SirT1 levels by AlphaLISA in ApoE4-transfected N2a cells. Type of data set: cell-based, murine. On the procedure: Prompted by the emerging importance of the associations between ApoE4 and the expression/protein levels of SirT1, high-throughput screening (HTS) of the UCLA compound library was performed using AlphaLISA to detect SirT1 levels in murine neuroblastoma cells stably transfected with ApoE4 (E4-N2a) to identify SirT1 enhancers. […] In the in vivo study, mice were treated orally at 40 mkd (20 mg/kg BID) for 56 days and underwent assessment of cognition in the Novel Object Recognition (NOR) testing paradigm. […] The performance of A03-treated E4-AD mice (FIG. 5A) improved to level of non-transgenic vehicle-treated mice.
Wherever PAMPA is given: unit not given here.

In turn, `C[C@H](N)C(=O)NC(C)(C)Cc1ccc(C(F)(F)F)cc1` [MP-78, (S)-2-amino-N-(2-methyl-1-(4-(trifluoromethyl)phenyl)propan-2-yl)propanamide hydrochloride] returned a PAMPA in “PAMPA” of 1.93. Further, in data set [1], the “SirT1 SOμM” value is “B (B >50%)” and the “SirT1 SμM” value is “A (A >20%)”.
`C[C@H](N)C(=O)OC1(Cc2ccc(Cl)cc2)CCCC1` [MP-34, 1-(4-chlorobenzyl)cyclopentyl alaninate] had a PAMPA in “PAMPA” of 4.92. Further, in data set [1], the “SirT1 SOμM” value is given as “A, A (A >20%)” and the “SirT1 SμM” value is reported as “A, A (A >20%)”.
Take `C[C@H](N)C(=O)Nc1ccc2ccccc2c1` [MP-55, (S)-2-amino-N-(naphthalen-2-yl)propanamide]: the PAMPA in the data set “PAMPA” was 5.06. Moreover, in data set [1], the “SirT1 SOμM” value is listed as “B (B >50%)” and the “SirT1 SμM” value is reported as “A (A >20%)”.
For `C[C@H](N)C(=O)Nc1ccccc1-c1ccc(F)cc1` [MP-57, (S)-2-amino-N-(4′-fluoro-[1,1′-biphenyl]-2-yl)propanamide], in “PAMPA”, the PAMPA is given as 1.6(2). For the same compound, in data set [1], the “SirT1 SOμM” value was “B (B >50%)” and the “SirT1 SμM” value was “A (A >20%)”.
In the data set “PAMPA”, `C[C@H](N)C(=O)NC(C)(C)Cc1cccc(C(F)(F)F)c1` [MP-39, (S)-2-amino-N-(2-methyl-1-(3-(trifluoromethyl)phenyl)propan-2-yl)propanamide] displayed a PAMPA of 1.7. In data set [1], the “SirT1 SOμM” value is “A, A (A >20%)” and the “SirT1 SμM” value is given as “A, A (A >20%)”.
For `C[C@H](N)C(=O)NC(C)(C)Cc1ccc(F)c(F)c1` [MP-35, (S)-2-amino-N-(1-(3,4-difluorophenyl)-2-methylpropan-2-yl)propanamide], the PAMPA in “PAMPA” was determined as 1.7. In data set [1], the “SirT1 SOμM” value is “A, A (A >20%)” and the “SirT1 SμM” value is on record as “A, A (A >20%)”.
With `CC(N)C(=O)OC(C)(C)CCc1ccc(Cl)cc1` (stereo not shown) [MP-12, 4-(4-chlorophenyl)-2-methylbutan-2-yl 2-aminopropanoate], the PAMPA in the data set “PAMPA” is 4.95. In data set [1], the “SirT1 SOμM” value is listed as “A, A (A >20%)” and the “SirT1 SμM” value is “A, A (A >20%)”.
In the case of `CC(N)C(=O)OC(C)(C)Cc1cc(F)cc(F)c1` (stereo not shown) [MP-14, 1-(3,5-difluorophenyl)-2-methylpropan-2-yl 2-aminopropanoate], in the data set “PAMPA”, the PAMPA worked out at 2.17. For the same compound, in data set [1], the “SirT1 SOμM” value was “A, A (A >20%)” and the “SirT1 SμM” value is reported as “A, A (A >20%)”.
Compound `CC(N)C(=O)OC1(Cc2ccc(Cl)cc2)CCCCC1` (stereo not shown) [MP-10, 1-(4-chlorobenzyl)cyclohexyl 2-aminopropanoate] gave a PAMPA in “PAMPA” of 6.58. Moreover, in data set [1], the “SirT1 SOμM” value is listed as “B (B >50%)” and the “SirT1 SμM” value is listed as “A (A >20%)”.
For the compound `CC(N)C(=O)OC(C)(C)Cc1ccc(C(F)(F)F)cc1.Cl` (stereo not shown) [MP-76, 2-methyl-1-(4-(trifluoromethyl)phenyl)propan-2-yl 2-aminopropanoate hydrochloride], the PAMPA in the data set “PAMPA” came to 2.71. Moreover, in data set [1], the “SirT1 SOμM” value is given as “A, A (A >20%)” and the “SirT1 SμM” value is listed as “A, A (A >20%)”.
`CC(N)C(=O)OC1(Cc2ccc(Cl)cc2)CCC1` (stereo not shown) [MP-09, 1-(4-chlorobenzyl)cyclobutyl 2-aminopropanoate] gave a PAMPA in “PAMPA” of 4.16. In data set [1], the “SirT1 SOμM” value was “A, A (A >20%)” and the “SirT1 SμM” value is “A, A (A >20%)”.
`C[C@H](N)C(=O)NC(C)(C)Cc1ccc(Br)cc1` [MP-47, (S)-2-amino-N-(1-(4-bromophenyl)-2-methylpropan-2-yl)propanamide] had a PAMPA in “PAMPA” of 1.76. Further, in data set [1], the “SirT1 SOμM” value is recorded as “A (A >20%)” and the “SirT1 SμM” value was “B (B >50%)”.
With `CC(N)C(=O)NC(C)(C)Cc1ccc(Cl)cc1` (stereo not shown) [MP-15, 2-amino-N-(1-(4-chlorophenyl)-2-methylpropan-2-yl)propanamide], the PAMPA in “PAMPA” amounted to 2.74. Further, in data set [1], the “SirT1 SOμM” value was “B (B >50%)” and the “SirT1 SμM” value was “A (A >20%)”.
As to `C[C@H](N)C(=O)OC1(Cc2ccc(Cl)cc2)CCNC1` (single isomer, unassigned) [MP-32, 3-(4-chlorobenzyl)pyrrolidin-3-yl L-alaninate], in the data set “PAMPA”, the PAMPA came out at 0.68. Further, in data set [1], the “SirT1 SOμM” value is “C (C = 100% increase versus control)” and the “SirT1 SμM” value is reported as “A (A >20%)”.
`CNC(C)C(=O)OC(C)(C)Cc1ccc(Cl)cc1` (stereo not shown) [MP-23, 1-(4-chlorophenyl)-2-methylpropan-2-yl 2-(methylamino)propanoate] displayed a PAMPA in “PAMPA” of 3.03. In data set [1], the “SirT1 SOμM” value is recorded as “a, a (a <250%)” and the “SirT1 SμM” value is reported as “a, a (a <250%)”.
`C[C@H](N)C(=O)NC1Cc2ccccc2C1` [MP-56, (S)-2-amino-N-(2,3-dihydro-1H-inden-2-yl)propanamide] gave a PAMPA in the data set “PAMPA” of 1.81. Besides, in data set [1], the “SirT1 SOμM” value is reported as “C (C = 100% increase versus control)” and the “SirT1 SμM” value is “A (A >20%)”.
The like results for `CC(C)(Cc1ccc(F)c(F)c1)NC(=O)C1CCCN1` (stereo not shown) [MP-25, N-(1-(3,4-difluorophenyl)-2-methylpropan-2-yl)pyrrolidine-2-carboxamide] were, in that order, 1.23(2), “B (B >50%)” and “A (A >20%)”.
Regarding `C[C@H](N)CC(=O)OC(C)(C)Cc1ccc(Cl)cc1` [MP-18, (S)-1-(4-chlorophenyl)-2-methylpropan-2-yl 3-aminobutanoate], in the data set “PAMPA”, the PAMPA is reported as 4.01(2). For the same compound, in data set [1], the “SirT1 SOμM” value is “A (A >20%)” and the “SirT1 SμM” value was “a (a <250%)”.
Take `CC(C)(Cc1ccc(Cl)cc1)OC(=O)CN` [MP-07, 1-(4-chlorophenyl)-2-methylpropan-2-yl 2-aminoethanoate]: the PAMPA in “PAMPA” is 4.15. Also, in data set [1], the “SirT1 SOμM” value was “B (B >50%)” and the “SirT1 SμM” value was “A (A >20%)”.
In turn, `CC(N)C(=O)OC(Cc1ccc(Cl)cc1)c1ccccc1` (stereo not shown) [MP-26] registered a PAMPA in “PAMPA” of 3.45. Moreover, in data set [1], the “SirT1 SOμM” value is reported as “A, A (A >20%)” and the “SirT1 SμM” value is “A, A (A >20%)”.
As for `CC(C)(Cc1ccc(F)c(F)c1)NC(=O)[C@@H](N)c1ccccc1` [MP-37], the PAMPA in the data set “PAMPA” (PAMPA) is recorded as 1.81. Besides, in data set [1], the “SirT1 SOμM” value is given as “a (a <250%)” and the “SirT1 SμM” value is given as “A (A >20%)”.
In the case of `C[C@H](N)C(=O)NC(C)(Cc1ccc(F)cc1)Cc1ccc(F)cc1` [MP-51, (S)-2-amino-N-(1,3-bis(4-fluorophenyl)-2-methylpropan-2-yl)propanamide], in the data set “PAMPA”, the PAMPA was 2.25 and 2.38. Further, in data set [1], the “SirT1 SOμM” value was “C (C = 100% increase versus control)” and the “SirT1 SμM” value is given as “A (A >20%)”.
`CC(C)C(N)C(=O)OC(C)(C)Cc1ccc(Cl)cc1` (stereo not shown) [MP-08, 1-(4-chlorophenyl)-2-methylpropan-2-yl 2-amino-3-methylbutanoate]: the PAMPA in “PAMPA” is reported as 4.65. Further, in data set [1], the “SirT1 SOμM” value was “C (C = 100% increase versus control)” and the “SirT1 SμM” value is given as “A (A >20%)”.
The compound `CC(C)(Cc1ccc(F)c(F)c1)NC(=O)C1CCCN1C(=O)OC(C)(C)C` (stereo not shown) [MP-24, tert-butyl 2-(1-(3,4-difluorophenyl)-2-methylpropan-2-ylcarbamoyl)pyrrolidine-1-carboxylate] registered a PAMPA in “PAMPA” of 1.27. In data set [1], the “SirT1 SOμM” value is “a, a (a <250%)” and the “SirT1 SμM” value is given as “a, a (a <250%)”.
The compound `C#CC[C@H](N)C(=O)NC(C)(C)Cc1ccc(Br)cc1` [MP-62, (S)-2-amino-N-(1-(4-bromophenyl)-2-methylpropan-2-yl)pent-4-ynamide] had a PAMPA in “PAMPA” of 1.67. In data set [1], the “SirT1 SOμM” value is listed as “B (B >50%)” and the “SirT1 SμM” value is reported as “A (A >20%)”.
Take `C[C@@H](N)C(=O)OC1(Cc2ccc(Cl)cc2)CCNCC1` (stereo in doubt) [MP-49, 4-(4-chlorobenzyl)piperidin-4-yl alaninate]: in the data set “PAMPA”, the PAMPA is listed as 1.02(2). Also, in data set [1], the “SirT1 SOμM” value is listed as “B (B >50%)” and the “SirT1 SμM” value was “A (A >20%)”.
In the data set “PAMPA”, `CC(C)(Cc1ccc(Cl)cc1)OC(=O)C(N)CO` (stereo not shown) [MP-16, 1-(4-chlorophenyl)-2-methylpropan-2-yl 2-amino-3-hydroxypropanoate] returned a PAMPA of 2.53. In addition, in data set [1], the “SirT1 SOμM” value is “A, A (A >20%)” and the “SirT1 SμM” value was “A, A (A >20%)”.
With `C[C@H](N)C(=O)O[C@@H]1CCC[C@@H]1c1ccc(Cl)cc1.Cl` (single isomer, unassigned) [MP-93], in data set [1], the “SirT1 SOμM” value is given as “C (C = 100% increase versus control)” and the “SirT1 SμM” value is “A (A >20%)”.
As to `O=C1NCc2ccccc2C[C@@H]1N[C@@H](c1ccccc1)[C@H](O)c1ccccc1` (stereo in doubt) [MP-102, 4(R)-(1R,2S)-1,2-diphenyl-2-hydroxyethylamino-2,3,4,5-tetrahydro-1H-2-benzazepin-3-one], in data set [1], the “SirT1 SOμM” value is “a, a (a <250%)” and the “SirT1 SμM” value was “a, a (a <250%)”.
For `C[C@H](N)C(=O)O[C@H]1CCC[C@H]1c1ccc(Cl)cc1.Cl` (single isomer, unassigned) [MP-94], in data set [1], the “SirT1 SOμM” value was “A (A >20%)” and the “SirT1 SμM” value is recorded as “a (a <250%)”.
Regarding `C[C@H](N)C(=O)N(C)[C@H]1CCC(c2ccc(Cl)c(Cl)c2)c2ccccc21.Cl` (stereo in doubt) [MP-81, (S)-2-amino-N-((1S,4R)-4-(3,4-dichlorophenyl)-1,2,3,4-tetrahydronaphthalen-1-yl)-N-methylpropanamide hydrochloride], in data set [1], the “SirT1 SOμM” value is listed as “B, B (B >50%)” and the “SirT1 SμM” value was “B, B (B >50%)”.
In the case of `C[C@H](N)C(=O)Nc1cccc2ccccc12` [MP-54, (S)-2-amino-N-(naphthalen-1-yl)propanamide], in data set [1], the “SirT1 SOμM” value is “C (C = 100% increase versus control)” and the “SirT1 SμM” value is “A (A >20%)”.
